Source: paper PMC7413254 (Nature Communications, 2020)
Read-outs that look alike come from different tables or passages of the source.

Key:
[1] = target: PfCRT^Dd2 (Plasmodium falciparum, UniProt Q9N623, A220S/I356T/K76T/M74I/N326S/N75E/Q271E/R371I); assay: cell-based; format: cell-based; settings: […], pH 5.5, read-out: [3H]CQ transport (% PfCRTDd2 control), trans-stimulation, PfCRTDd2, trans-stimulation, PfCRT-mediated component (background subtracted), mean ± SEM, SEM
In short: (§1)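 Oocytes (ten per treatment, ≥4 independent frogs/days) were preloaded by injecting VF-6 in 25 nL ND96 at pH 5.0, 5.5, 6.0 or 7.0, or Na^+-free choline buffer, then uptake run 1.5 h, 27.5 °C, ND96 pH 5.5 by default. Internal concentrations assumed ~400 nL oocyte volume.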

[2] = target: T1, PfNT1 (Plasmodium falciparum, UniProt Q8IDM6); assay: cell-based; format: cell-based; settings: for activity at 5000 µM: total [3H]CQ transport
T1 construct: expressed in transfected cells; host or cells: Xenopus laevis oocytes (stage V-VI), cRNA-injected
T1 sequence (Q8IDM6 whole entry): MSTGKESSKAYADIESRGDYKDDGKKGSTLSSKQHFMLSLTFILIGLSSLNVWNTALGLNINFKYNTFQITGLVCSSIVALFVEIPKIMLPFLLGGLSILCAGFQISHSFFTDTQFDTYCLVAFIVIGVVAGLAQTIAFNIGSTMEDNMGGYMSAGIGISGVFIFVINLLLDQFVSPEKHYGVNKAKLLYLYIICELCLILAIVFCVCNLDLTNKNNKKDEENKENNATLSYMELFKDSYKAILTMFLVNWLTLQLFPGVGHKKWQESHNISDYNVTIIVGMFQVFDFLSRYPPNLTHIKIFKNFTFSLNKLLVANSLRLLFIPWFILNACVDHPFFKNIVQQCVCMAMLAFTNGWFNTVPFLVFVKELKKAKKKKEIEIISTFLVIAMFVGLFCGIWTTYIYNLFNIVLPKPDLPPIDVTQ
In short: as §1

[3] = target: T2, PfCRT^3D7 (Plasmodium falciparum, UniProt Q8IBZ9); assay: cell-based; format: cell-based
T2 sequence (Q8IBZ9 59-398): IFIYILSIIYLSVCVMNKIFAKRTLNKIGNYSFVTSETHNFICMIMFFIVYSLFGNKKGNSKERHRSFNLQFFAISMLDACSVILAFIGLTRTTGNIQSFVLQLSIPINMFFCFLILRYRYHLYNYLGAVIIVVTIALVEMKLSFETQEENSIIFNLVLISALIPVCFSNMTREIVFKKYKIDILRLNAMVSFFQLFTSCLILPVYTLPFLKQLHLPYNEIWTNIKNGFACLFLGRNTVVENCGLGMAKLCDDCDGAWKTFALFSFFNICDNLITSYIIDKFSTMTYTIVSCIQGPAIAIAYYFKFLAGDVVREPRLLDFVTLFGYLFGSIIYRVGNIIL
In short: as §1

[4] = target: T2, PfCRT^3D7; assay: cell-based; format: cell-based; settings: total [3H]CQ transport; for inhibition at 500 µM: [test solute] = 0.5 mM; for inhibition at 1000 µM: [test solute] = 1 mM; for inhibition at 2000 µM: [test solute] = 2 mM
In short: (§2)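 ND96, pH 5.5, 1.5 h, 27.5 °C; uptake direction acidic outside → oocyte cytosol, mimicking efflux from digestive vacuole. Ice-cold wash stop, 10% SDS lysis, scintillation counting. Ten oocytes/treatment, ≥4 independent experiments.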

[5] = system: PfCRT; assay: Potential co-substrates tested for influx of VF-6 via PfCRT into the oocyte; format: cell-based, Plasmodium falciparum; parameters: key: X: Compounds that have been tested as potential co-substrates but are not required for influx of VF-6 via PfCRT into the oocyte
[6] = system: PfCRT; assay: Test of solutes as potential co-substrates for influx of VF-6 via PfCRT into the oocyte; format: cell-based, Plasmodium falciparum; parameters: key: X: Compounds that have been tested as potential co-substrates but are not required for influx of VF-6 via PfCRT into the oocyte; settings: X = tested
[7] = system: non-expressing oocytes; format: cell-based, Xenopus laevis; settings: total [3H]CQ transport; for Uptake of [3H]CQ (% non-expressing oocyte control), trans-stimulation: non-expressing oocytes, normalised to the oocyte type control; for Uptake of [3H]CQ (% PfCRTDd2 control), trans-stimulation, non-expressing oocytes: mean ± SEM, SEM
In short: as §1

[8] = system: non-expressing oocytes; assay: cells; format: cell-based, Xenopus laevis; settings: Xenopus laevis, total [3H]CQ transport; for inhibition at 500 µM: [test solute] = 0.5 mM; for inhibition at 1000 µM: [test solute] = 1 mM; for inhibition at 2000 µM: [test solute] = 2 mM
In short: as §2

[9] = [test solute]i = 45 mM (30 mM for some solutes due to solubility)
[10] = PfCRT3D7 oocytes, normalised to the oocyte type control, read-out: Uptake of [3H]CQ (% PfCRT3D7 control), cis-inhibition
[11] = mean ± SEM, SEM, read-out: Uptake of [3H]CQ (% PfCRTDd2 control), cis-inhibition, PfCRT3D7
[12] = Oocyte, mean ± SEM, SEM, read-out: Uptake of [3H]CQ (% PfCRTDd2 control), cis-inhibition, non-expressing oocytes
[13] = non-expressing oocytes, normalised to the oocyte type control, read-out: Uptake of [3H]CQ (% non-expressing oocyte control), cis-inhibition

Sequence of PfCRT^Dd2 (Q9N623 whole entry A220S/I356T/K76T/M74I/N326S/N75E/Q271E/R371I): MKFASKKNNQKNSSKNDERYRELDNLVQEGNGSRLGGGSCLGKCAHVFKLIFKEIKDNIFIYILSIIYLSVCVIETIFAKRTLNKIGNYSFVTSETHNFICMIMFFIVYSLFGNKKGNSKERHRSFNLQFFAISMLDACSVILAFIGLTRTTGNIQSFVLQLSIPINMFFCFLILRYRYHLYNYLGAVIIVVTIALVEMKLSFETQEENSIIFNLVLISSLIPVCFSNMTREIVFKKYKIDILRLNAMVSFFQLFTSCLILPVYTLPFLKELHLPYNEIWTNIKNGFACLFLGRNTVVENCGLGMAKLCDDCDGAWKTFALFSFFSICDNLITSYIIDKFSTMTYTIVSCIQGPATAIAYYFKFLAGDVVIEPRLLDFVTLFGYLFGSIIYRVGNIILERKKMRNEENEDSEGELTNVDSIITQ

**Q.** Which results are given for `N[C@@H](CS)C(=O)O` [L-cysteine]?
**A.** activity at 5000 µM ([1]; [test solute]i = 5 mM (injected)): 97 ± 2.6%; activity at 45000 µM [1, 9]: 99 ± 4.5%; activity at 5000 µM ([2]; PfNT1 oocytes, [test solute]i = 5 mM, normalised to the oocyte type control, read-out: Uptake of [3H]CQ (% PfNT1 control), trans-stimulation): 98 ± 3.7%; activity at 45000 µM ([2]; SEM, read-out: Uptake of [3H]CQ (% PfCRTDd2 control), trans-stimulation, PfNT1): 2.6 ± 0.05%; activity at 45000 µM ([2]; read-out: Uptake of [3H]CQ (% PfNT1 control), trans-stimulation): 99 ± 3.2%; activity at 5000 µM ([2]; [test solute]i = 5 mM (intracellular), mean ± SEM, SEM, read-out: Uptake of [3H]CQ (% PfCRTDd2 control), trans-stimulation, PfNT1): 2.6 ± 0.08%; activity at 5000 µM ([3]; PfCRT3D7 oocytes, [test solute]i = 5 mM, total [3H]CQ transport, normalised to the oocyte type control, read-out: Uptake of [3H]CQ (% PfCRT3D7 control), trans-stimulation): 100 ± 2.4%; [3H]CQ transport (% PfCRT3D7 control), trans-stimulation, PfCRT3D7 ([3]; SEM): 0.3 ± 0.02 % PfCRT3D7 control; activity at 5000 µM ([3]; [test solute]i = 5 mM (intracellular), PfCRT3D7 oocytes, normalised to oocyte type control, read-out: PfCRT-mediated [3H]CQ transport, trans-stimulation (% PfCRT3D7 control)): 98 ± 3.1%; activity at 45000 µM ([3]; SEM, read-out: Uptake of [3H]CQ (% PfCRTDd2 control), trans-stimulation, PfCRT3D7): 3.2 ± 0.08%; activity at 45000 µM ([3]; read-out: PfCRT-mediated [3H]CQ transport, trans-stimulation (% PfCRT3D7 control)): 94 ± 4.4%; activity at 45000 µM ([3]; read-out: Uptake of [3H]CQ (% PfCRT3D7 control), trans-stimulation): 96 ± 3.5%; activity at 5000 µM ([3]; total [3H]CQ transport, [test solute]i = 5 mM (intracellular), mean ± SEM, SEM, read-out: Uptake of [3H]CQ (% PfCRTDd2 control), trans-stimulation, PfCRT3D7): 3.3 ± 0.05%; inhibition at 500 µM [4, 10]: 99 ± 3.2%; inhibition at 1000 µM [4, 10]: 100 ± 3.6%; inhibition at 2000 µM [4, 10]: 99 ± 4.2%; inhibition at 500 µM [4, 11]: 3.4 ± 0.05%; inhibition at 1000 µM [4, 11]: 2.5 ± 0.05%; inhibition at 2000 µM [4, 11]: 3.1 ± 0.08%; Tested as potential co-substrate but not required for influx of VF-6 via PfCRT into the oocyte [5]: X; Tested as potential co-substrate but not required for influx of VF-6 via PfCRT into the oocyte [6]: X; Uptake of [3H]CQ (% non-expressing oocyte control), trans-stimulation ([7]; [test solute]i = 5 mM): 98 ± 2.2 % non-expressing oocyte control; Uptake of [3H]CQ (% non-expressing oocyte control), trans-stimulation [7, 9]: 100 ± 4.2 % non-expressing oocyte control; Uptake of [3H]CQ (% PfCRTDd2 control), trans-stimulation, non-expressing oocytes ([7]; [test solute]i = 5 mM (intracellular)): 3.1 ± 0.07 % PfCRTDd2 control; Uptake of [3H]CQ (% PfCRTDd2 control), trans-stimulation, non-expressing oocytes ([7]; [test solute]i = 45 mM (intracellular; 30 mM for some solutes due to solubility)): 2.2 ± 0.03 % PfCRTDd2 control; inhibition at 500 µM [8, 12]: 2.1 ± 0.08%; inhibition at 1000 µM [8, 12]: 3.4 ± 0.01%; inhibition at 2000 µM [8, 12]: 2.3 ± 0.1%; inhibition at 500 µM [8, 13]: 99 ± 5.3%; inhibition at 1000 µM [8, 13]: 100 ± 4.6%; inhibition at 2000 µM [8, 13]: 99 ± 3.5%
